{
  "source": "patent US20210179666A1",
  "about": "“CYCLIC PEPTIDES AND METHODS OF USE THEREOF” (Regents of the University of Minnesota, priority 2019, published 2021)",
  "key": {"mMC4R [1]": {"biological_target": "T1, mMC4R (Mus musculus, UniProt P56450)", "T1 sequence (P56450 whole entry)": "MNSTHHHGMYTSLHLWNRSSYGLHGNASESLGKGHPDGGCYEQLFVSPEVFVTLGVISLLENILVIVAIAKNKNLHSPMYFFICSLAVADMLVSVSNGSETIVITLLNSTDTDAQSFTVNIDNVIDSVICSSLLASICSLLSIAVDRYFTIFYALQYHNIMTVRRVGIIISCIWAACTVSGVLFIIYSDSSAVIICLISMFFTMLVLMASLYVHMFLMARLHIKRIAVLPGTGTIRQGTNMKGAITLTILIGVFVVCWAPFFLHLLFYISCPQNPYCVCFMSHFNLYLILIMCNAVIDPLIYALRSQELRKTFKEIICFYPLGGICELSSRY", "assay": "cell-based"}, "mMC5R [2]": {"biological_target": "T2, mMC5R (Mus musculus, UniProt P41149)", "T2 sequence (P41149 whole entry)": "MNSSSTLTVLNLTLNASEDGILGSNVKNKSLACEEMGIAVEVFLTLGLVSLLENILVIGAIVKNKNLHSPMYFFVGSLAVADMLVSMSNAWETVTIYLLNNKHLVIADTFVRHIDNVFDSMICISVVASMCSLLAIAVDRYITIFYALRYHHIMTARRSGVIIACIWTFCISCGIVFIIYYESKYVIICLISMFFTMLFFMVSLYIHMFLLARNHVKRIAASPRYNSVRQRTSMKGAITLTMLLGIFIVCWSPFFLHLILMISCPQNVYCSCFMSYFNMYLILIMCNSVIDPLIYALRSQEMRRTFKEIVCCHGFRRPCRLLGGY", "details": "for mMC5R pA2: Example 1, antagonist, Schild analysis with NDP-MSH, ± SEM, reported herein for the first time"}, "hMC4R [3]": {"biological_target": "T3, hMC4R (Homo sapiens, UniProt P32245)", "T3 sequence (P32245 whole entry)": "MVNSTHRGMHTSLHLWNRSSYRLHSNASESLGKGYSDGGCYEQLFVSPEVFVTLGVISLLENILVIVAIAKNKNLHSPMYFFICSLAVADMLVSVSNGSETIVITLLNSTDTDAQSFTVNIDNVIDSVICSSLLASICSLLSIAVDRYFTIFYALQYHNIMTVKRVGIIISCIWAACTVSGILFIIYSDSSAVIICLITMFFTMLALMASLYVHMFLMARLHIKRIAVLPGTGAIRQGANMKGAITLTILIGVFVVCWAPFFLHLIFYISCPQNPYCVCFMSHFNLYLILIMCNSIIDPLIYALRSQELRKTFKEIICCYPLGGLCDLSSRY", "assay": "cAMP AlphaScreen bioassay, HEK293 cells stably expressing hMC4R", "assay_type": "cell-based", "set-up": "expressed in transfected cells", "details": "for Observed Inverse Agonism?: hMC4R, cAMP; for hMC4R pA2: antagonist pA2, Schild analysis with agonist NDP-MSH, ± SEM, <5.0 = no antagonist potency up to 10,000 nM"}, "mMC3R [4]": {"biological_target": "T4, mMC3R (Mus musculus, UniProt P33033)", "T4 sequence (P33033 whole entry)": "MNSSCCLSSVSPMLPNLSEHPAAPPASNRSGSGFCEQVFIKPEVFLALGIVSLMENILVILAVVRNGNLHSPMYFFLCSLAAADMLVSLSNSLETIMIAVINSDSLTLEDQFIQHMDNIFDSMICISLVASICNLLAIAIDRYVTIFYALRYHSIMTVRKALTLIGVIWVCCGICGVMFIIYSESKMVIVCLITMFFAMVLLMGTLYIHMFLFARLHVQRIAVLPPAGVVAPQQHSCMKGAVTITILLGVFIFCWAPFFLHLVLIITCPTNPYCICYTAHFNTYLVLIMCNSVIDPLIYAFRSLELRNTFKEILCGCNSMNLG", "details": "for mMC3R pA2: antagonist, Schild analysis with NDP-MSH, ± SEM"}, "mMC1R [5]": {"biological_target": "T5, mMC1R (Mus musculus, UniProt Q01727)", "T5 sequence (Q01727 whole entry)": "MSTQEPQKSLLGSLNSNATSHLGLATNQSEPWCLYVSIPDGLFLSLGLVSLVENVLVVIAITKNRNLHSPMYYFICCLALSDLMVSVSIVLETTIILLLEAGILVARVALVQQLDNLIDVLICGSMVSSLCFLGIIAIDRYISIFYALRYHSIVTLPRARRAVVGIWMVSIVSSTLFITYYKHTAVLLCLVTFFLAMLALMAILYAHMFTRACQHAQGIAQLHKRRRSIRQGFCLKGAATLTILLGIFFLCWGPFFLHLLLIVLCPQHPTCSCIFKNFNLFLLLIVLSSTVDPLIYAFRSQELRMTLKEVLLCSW", "assay": "cAMP AlphaScreen bioassay, HEK293 cells stably expressing mMC1R", "details": "Example 2; @ 100 μM; EC50 not determinable"}, "mMC3R [6]": {"biological_target": "T4, mMC3R", "details": "compounds 1 and 2, previously reported, cited from earlier work; for mMC3R pA2: antagonist"}, "mMC5R [7]": {"biological_target": "T2, mMC5R", "set-up": "expressed in transfected cells", "details": "compounds 1 and 2, previously reported; cited from earlier work"}, "hMC4R [8]": {"biological_target": "T3, hMC4R", "assay": "125I-NDP-MSH competitive binding assay, transfected HEK293 cells, hMC4R", "details": "binding IC50 versus control 1 (Asn) or 2 (Dap)"}, "mMC4R [9]": {"biological_target": "T1, mMC4R", "details": "Example 1; for mMC4R pA2: antagonist, Schild analysis with NDP-MSH, ± SEM, <5.0 = no antagonist potency up to 10,000 nM"}, "mMC3R [10]": {"biological_target": "T4, mMC3R", "assay": "125I-NDP-MSH competitive binding assay, transfected HEK293 cells, mMC3R", "details": "binding IC50 versus control 1 (Asn) or 2 (Dap)"}, "mMC5R [11]": {"biological_target": "T2, mMC5R", "assay": "125I-NDP-MSH competitive binding assay, transfected HEK293 cells, mMC5R", "details": "binding IC50 versus control 1 (Asn) or 2 (Dap)"}, "mMC1R [12]": {"biological_target": "T5, mMC1R", "assay": "125I-NDP-MSH competitive binding assay, transfected HEK293 cells, mMC1R", "details": "binding IC50 versus control 1 (Asn) or 2 (Dap)"}, "mMC4R [13]": {"biological_target": "T1, mMC4R", "assay": "125I-NDP-MSH competitive binding assay, transfected HEK293 cells, mMC4R", "details": "binding IC50 versus control 1 (Asn) or 2 (Dap)"}, "MC5R": {"biological_target": "MC5R (Homo sapiens, UniProt P33032)", "sequence (P33032 whole entry, species assumed)": "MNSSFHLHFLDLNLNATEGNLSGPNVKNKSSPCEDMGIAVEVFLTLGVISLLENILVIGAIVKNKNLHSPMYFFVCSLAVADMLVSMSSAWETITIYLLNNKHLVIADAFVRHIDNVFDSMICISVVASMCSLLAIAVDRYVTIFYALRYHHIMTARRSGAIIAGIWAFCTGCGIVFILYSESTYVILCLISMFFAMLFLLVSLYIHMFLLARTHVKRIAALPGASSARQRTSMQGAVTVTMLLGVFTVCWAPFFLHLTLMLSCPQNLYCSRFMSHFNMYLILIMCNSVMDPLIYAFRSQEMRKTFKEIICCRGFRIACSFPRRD", "details": "chemically synthetized AgRP ligands, Yang et al. 1999, cited from earlier work"}, "[14]": {"details": "Example 1, <5.0 = no antagonist potency up to 10,000 nM"}},
  "note": "Where “and” joins values, the source holds several entries; their conditions need not be identical. Equal entries are not always repeated. Where two headings read alike, the source gives them in different places. Square brackets hold non-standard residues; d marks the D form. Peptide text beside a SMILES is read from it. Gly(N-(CH2)3-guanidino) = N=C(N)NCCCNCC(=O)O; Dap = NC[C@H](N)C(=O)O",
  "data": [
    {"compound": "C[C@@H]1NC(=O)[C@H](CN)NC(=O)[C@H](Cc2ccccc2)NC(=O)[C@H](Cc2ccccc2)NC(=O)CN(CCCNC(=N)N)C(=O)[C@@H]2CCCN2C(=O)[C@H]2CCCN2C(=O)[C@H](Cc2ccccc2)NC1=O", "note": "[MDE8-108-3c, c[Pro-NArg-Phe-Phe-Dap-Ala-Phe-DPro]] (cyclo([Gly(N-(CH2)3-guanidino)]FF[Dap]AF[dP]P))", "values": [
      {"measurement": "Kb", "setting": "mMC4R [1]", "result": 3160, "unit": "nM"}
    ]},
    {"compound": "C[C@@H]1NC(=O)[C@H](CN)NC(=O)[C@H](Cc2ccccc2)NC(=O)[C@H](Cc2ccccc2)NC(=O)[C@H](CCCNC(=N)N)NC(=O)[C@@H]2CCCN2C(=O)[C@H]2CCCN2C(=O)[C@H](Cc2ccccc2)NC1=O", "note": "[MDE 6-82-1c, c[Pro-Arg-Phe-Phe-Dap-Ala-Phe-DPro]]", "values": [
      {"measurement": "mMC5R pharmacology observed (Partial Agonist / Inverse Agonist)", "setting": "mMC5R [2]; Example 2", "result": "Inverse"},
      {"measurement": "mMC5R inverse agonist, percent decrease from basal", "setting": "mMC5R [2]; Example 2, basal to plateau signal, sigmoidal dose-response", "result": "−10", "unit": "%"},
      {"measurement": "Observed Inverse Agonism?", "setting": "hMC4R [3]", "result": "Yes"},
      {"measurement": "mMC3R percent maximal stimulatory response", "setting": "mMC3R [4]; Example 2, @ 100 μM", "result": 20, "unit": "% @"},
      {"measurement": "mMC3R pA2", "setting": "mMC3R [4]; Example 2, <5.5 = no antagonist potency up to 10,000 nM", "result": 6.5},
      {"measurement": "mMC3R pA2", "setting": "mMC3R [4]; Example 2, <5.5 = no antagonist potency up to 10,000 nM, listed as MDE6-82-1c", "result": "6.5 ± 0.3"},
      {"measurement": "mMC1R percent maximal stimulatory response", "setting": "mMC1R [5]", "result": 36, "unit": "% @"},
      {"measurement": "EC50", "setting": "mMC3R [6]; agonist", "result": "> 100000", "unit": "nM"},
      {"measurement": "mMC3R pA2", "setting": "mMC3R [6]", "result": "6.5 and 6.5 ± 0.09"},
      {"measurement": "mMC3R pA2", "setting": "mMC3R [6]; listed as MDE6-82-1c", "result": "6.5-7.2"},
      {"measurement": "mMC5R inverse agonist, percent decrease from basal", "setting": "mMC5R [7]", "result": "−15", "unit": "%"},
      {"measurement": "mMC5R pharmacology observed in agonist assay (Inverse Agonist)", "setting": "mMC5R [7]", "result": "Inverse"}
    ]},
    {"compound": "CC(C)[C@@H]1NC(=O)[C@H](CC(N)=O)NC(=O)[C@H](Cc2ccccc2)NC(=O)[C@H](Cc2ccccc2)NC(=O)[C@H](CCCNC(=N)N)NC(=O)[C@@H]2CCCN2C(=O)[C@H]2CCCN2C(=O)[C@H](Cc2ccccc2)NC1=O", "note": "[ZMK 2-82, c[Pro-Arg-Phe-Phe-Asn-Val-Phe-DPro]] (cyclo(PRFFNVF[dP]))", "values": [
      {"measurement": "mMC5R pA2", "setting": "mMC5R [2]", "result": "6.1 and 6.1 ± 0.09"},
      {"measurement": "hMC4R Fold Diff", "setting": "hMC4R [8]", "result": 3},
      {"measurement": "mMC4R percent maximal stimulatory response", "setting": "mMC4R [9]; @ 100 μM, relative to NDP-MSH signal", "result": 16, "unit": "% @"},
      {"measurement": "mMC4R pA2", "setting": "mMC4R [9]", "result": "7.2 and 7.2 ± 0.1"},
      {"measurement": "mMC3R Fold Diff", "setting": "mMC3R [10]", "result": 3},
      {"measurement": "hMC4R pA2", "setting": "hMC4R [3]", "result": 7.7},
      {"measurement": "hMC4R pA2", "setting": "hMC4R [3]; listed as AMK 2-82", "result": "7.8 ± 0.03"},
      {"measurement": "Observed Inverse Agonism?", "setting": "hMC4R [3]", "result": "Yes"},
      {"measurement": "mMC5R Fold Diff", "setting": "mMC5R [11]", "result": 2},
      {"measurement": "mMC3R pA2", "setting": "mMC3R [4]; [14]", "result": "5.9 and 5.9 ± 0.1"},
      {"measurement": "mMC1R Fold Diff", "setting": "mMC1R [12]", "result": 2},
      {"measurement": "mMC4R Fold Diff", "setting": "mMC4R [13]", "result": 2}
    ]},
    {"compound": "C[C@@H]1NC(=O)[C@H](CN)NC(=O)[C@H](Cc2ccccc2)NC(=O)[C@H](Cc2ccccc2)NC(=O)[C@H](Cc2c[nH]cn2)NC(=O)[C@@H]2CCCN2C(=O)[C@H]2CCCN2C(=O)[C@H](Cc2ccccc2)NC1=O", "note": "[ZMK 2-99, c[Pro-His-Phe-Phe-Dap-Ala-Phe-DPro]] (cyclo(PHFF[Dap]AF[dP]))", "values": [
      {"measurement": "hMC4R Fold Diff", "setting": "hMC4R [8]", "result": 400},
      {"measurement": "mMC4R pA2", "setting": "mMC4R [9]", "result": "6.0 and 6.0 ± 0.1"},
      {"measurement": "mMC3R Fold Diff", "setting": "mMC3R [10]", "result": 5},
      {"measurement": "hMC4R pA2", "setting": "hMC4R [3]", "result": "6.4 and 6.4 ± 0.09"},
      {"measurement": "Observed Inverse Agonism?", "setting": "hMC4R [3]", "result": "No"},
      {"measurement": "mMC5R Fold Diff", "setting": "mMC5R [11]", "result": 7},
      {"measurement": "mMC3R pA2", "setting": "mMC3R [4]; [14]", "result": "5.4 and 5.4 ± 0.1"},
      {"measurement": "mMC1R Fold Diff", "setting": "mMC1R [12]", "result": 5},
      {"measurement": "mMC4R Fold Diff", "setting": "mMC4R [13]", "result": 500}
    ]},
    {"compound": "C[C@@H]1NC(=O)[C@H](CN)NC(=O)[C@H](Cc2ccccc2)NC(=O)[C@H](Cc2ccc(O)cc2)NC(=O)[C@H](CCCNC(=N)N)NC(=O)[C@@H]2CCCN2C(=O)[C@H]2CCCN2C(=O)[C@H](Cc2ccccc2)NC1=O", "note": "[ZMK 2-112, c[Pro-Arg-Tyr-Phe-Dap-Ala-Phe-DPro]] (cyclo(PRYF[Dap]AF[dP]))", "values": [
      {"measurement": "mMC5R pA2", "setting": "mMC5R [2]", "result": "6.5 and 6.5 ± 0.2"},
      {"measurement": "hMC4R Fold Diff", "setting": "hMC4R [8]", "result": 100},
      {"measurement": "mMC4R pA2", "setting": "mMC4R [9]", "result": "7.3 and 7.3 ± 0.1"},
      {"measurement": "mMC3R Fold Diff", "setting": "mMC3R [10]", "result": 9},
      {"measurement": "hMC4R pA2", "setting": "hMC4R [3]", "result": "7.5 and 7.5 ± 0.2"},
      {"measurement": "Observed Inverse Agonism?", "setting": "hMC4R [3]", "result": "Yes"},
      {"measurement": "mMC5R Fold Diff", "setting": "mMC5R [11]", "result": 20},
      {"measurement": "mMC3R pA2", "setting": "mMC3R [4]; [14]", "result": "6.5 and 6.5 ± 0.1"},
      {"measurement": "mMC1R Fold Diff", "setting": "mMC1R [12]", "result": 4},
      {"measurement": "mMC4R Fold Diff", "setting": "mMC4R [13]", "result": 70}
    ]},
    {"compound": "AgRP: agouti-related protein, endogenous MC3R and MC4R antagonist and MC4R inverse agonist", "values": [
      {"measurement": "Observed Inverse Agonism?", "setting": "hMC4R [3]", "result": "Yes"},
      {"measurement": "IC50", "setting": "MC5R; read-out: IC50, displacement of radiolabeled NDP-MSH at the MC5R", "result": 310, "unit": "nM"},
      {"measurement": "IC50", "setting": "MC5R; read-out: IC50, displacement of radiolabeled AgRP at the MC5R", "result": 26, "unit": "nM"}
    ]}
  ]
}
